The values that follow come from US8389512B2 (priority 2008, dated 2013).

Data set [1] can be described thus: 4 hr in-vivo study: meloxicam plasma concentration after oral delivery to rats. The note with it: rat.
Text: Male Sprague-Dawley rats, 250-300 g, received with a surgically implanted jugular catheter in place from (Harlan or Taconic Laboratories, USA). Animals were housed one per polycarbonate cage utilizing individual cage cards, with free access to food and water in accordance with NIH guidelines. Animals were quarantined at least 24 hrs after arrival prior to use and patency of the implanted catheter determined on the day of the test. Environmental controls for the animal room were set to maintain 18 to 26° C., a relative humidity of 30 to 70%, a minimum of 10 air changes/hour, and a 12-hour light/12-hour dark cycle. […] Each rat was weighed and the dose volume adjusted accordingly so that the effect of weight variability on results of study was eliminated and that each rat received 1 mg/kg dose.
Briefly, using a gradient elution with a Waters Symmetry C18 column (Waters Inc. USA), LCMS with selective reaction monitoring, protein precipitation of the plasma sample using acetonitrile where an LOQ of 50 ng/ml was achieved. Pharmacokinetic parameters were calculated from individual animal samples using appropriate software (PK Solutions 2.0, Summit Research Services, Montrose, Calif., USA).
Data set [2] is described as follows: 24 hr in-vivo study: meloxicam plasma concentration and pharmacokinetics after oral (gavage) administration to male rats. The note with it: male rats, 1 mg/kg oral; for AUC (area under the plasma concentration-time curve at 24 h) / Cmax (peak plasma concentration) / F (bioavailability): mean N = 5; for Time to Reach 0.59 μg/ml: calculated by interpolation of time vs. concentration data. The source says:
Male Sprague-Dawley rats, 250-300 g, received with a surgically implanted jugular catheter in place from (Harlan or Taconic Laboratories, USA). Animals were housed one per polycarbonate cage utilizing individual cage cards, with free access to food and water in accordance with NIH guidelines. Animals were quarantined at least 24 hrs after arrival prior to use and patency of the implanted catheter determined on the day of the test. Environmental controls for the animal room were set to maintain 18 to 26° C., a relative humidity of 30 to 70%, a minimum of 10 air changes/hour, and a 12-hour light/12-hour dark cycle. Rats historically have been used in safety evaluation and PK screening studies and are recommended by appropriate regulatory agencies. […] Each rat was weighed and the dose volume adjusted accordingly so that the effect of weight variability on results of study was eliminated and that each rat received 1 mg/kg dose.
Pharmacokinetic parameters were calculated from individual animal samples using appropriate software (PK Solutions 2.0, Summit Research Services, Montrose, Calif., USA).

Consider `Cc1cnc(NC(=O)C2=C(O)c3ccccc3S(=O)(=O)N2C)s1.O=C(O)c1ccccc1O` [Cocrystal 87, Meloxicam:Salicylic Acid Cocrystal Form I (1:1)], for which the meloxicam plasma concentration was 0 µg/mL in data set [1] (time 0 min); 23.61 µg/mL in data set [1] (time 15 min, listed as 87); 26.76 µg/mL in data set [1] (time 30 min, listed as 87); 28.85 µg/mL in data set [1] (time 45 min, listed as 87); 26.79 µg/mL in data set [1] (time 60 min, listed as 87); 34.16 µg/mL in data set [1] (time 120 min, listed as 87). Moreover, the meloxicam plasma concentration in data set [1] (time 240 min, listed as 87) was 36.54 µg/mL.

In the case of `Cc1cnc(NC(=O)C2=C(O)c3ccccc3S(=O)(=O)N2C)s1.O=C(O)c1ccccc1` [Cocrystal 153, Meloxicam:Benzoic Acid Cocrystal (1:1)], the meloxicam plasma concentration in data set [1] (time 0 min) is 0 µg/mL; in data set [1] (time 15 min) it was 21.94 µg/mL; in data set [1] (time 30 min), 25.88 µg/mL; in data set [1] (time 45 min) it was 28.30 µg/mL; in data set [1] (time 60 min) it was 28.11 µg/mL; in data set [1] (time 120 min), 33.31 µg/mL. The meloxicam plasma concentration in data set [1] (time 240 min) came to 42.51 µg/mL.

In the case of `Cc1cnc(NC(=O)C2=C(O)c3ccccc3S(=O)(=O)N2C)s1.O=C(O)CC(=O)O` [Cocrystal 22, Meloxicam:Malonic Acid Cocrystal (1:1)], the meloxicam plasma concentration came out at 0 µg/mL in data set [1] (time 0 min); 7.51 µg/mL in data set [1] (time 15 min); 22.15 µg/mL in data set [1] (time 30 min); 27.00 µg/mL in data set [1] (time 45 min); 29.33 µg/mL in data set [1] (time 60 min); 29.57 µg/mL in data set [1] (time 120 min).

Regarding `Cc1cnc(NC(=O)C2=C(O)c3ccccc3S(=O)(=O)N2C)s1.O=C(O)c1ccc2ccccc2c1O` [Cocrystal 76, Meloxicam: 1-Hydroxy-2-Naphthoic Acid Cocrystal (1:1)], the meloxicam plasma concentration stood at 2.1 µg/mL in data set [2] (N = 5, 0.25 hour); 2.49 µg/mL in data set [2] (N = 5, 0.5 hour); 0 µg/mL in data set [1] (time 0 min); 39.24 µg/mL in data set [1] (time 30 min); 45.29 µg/mL in data set [1] (time 45 min); 44.60 µg/mL in data set [1] (time 60 min). In addition, the meloxicam plasma concentration in data set [1] (time 120 min) is 46.24 µg/mL; in data set [1] (time 240 min), 52.24 µg/mL. In addition, in data set [2], the “AUC (area under the plasma concentration-time curve at 24 h)” value (“AUC” for short) amounted to 62500 ng·h/mL. The “Cmax (peak plasma concentration)” value in data set [2] is 4150 ng/mL. For the same molecule, the “F (bioavailability)” value in data set [2] was 98.3%. Moreover, the “Time to Reach 0.59 μg/ml” value in data set [2] is reported as 6.5 min.

`Cc1cnc(NC(=O)C2=C(O)c3ccccc3S(=O)(=O)N2C)s1.O=C(O)/C=C\C(=O)O` [Cocrystal 21, Meloxicam:Maleic Acid Cocrystal (1:1)]: the meloxicam plasma concentration came to 0.62 µg/mL in data set [2] (N = 5, 0.25 hour); 0.72 µg/mL in data set [2] (N = 5, 0.5 hour); 0.3 µg/mL in data set [1] (time 0 min); 19.77 µg/mL in data set [1] (time 15 min); 26.13 µg/mL in data set [1] (time 30 min); 31.19 µg/mL in data set [1] (time 45 min). Also, the meloxicam plasma concentration came to 32.84 µg/mL in data set [1] (time 60 min), 35.02 µg/mL in data set [1] (time 120 min) and 42.12 µg/mL in data set [1] (time 240 min). Further, in data set [2], the “AUC” value came out at 25300 ng·h/mL. Besides, the “Cmax (peak plasma concentration)” value in data set [2] is 1490 ng/mL. The “F (bioavailability)” value in data set [2] is listed as 39.8%. In data set [2], the “Time to Reach 0.59 μg/ml” value is on record as 13.4 min.

With `Cc1cnc(NC(=O)C2=C(O)c3ccccc3S(=O)(=O)N2C)s1.O=C(O)CO` [Cocrystal 28, Meloxicam:Glycolic Acid Cocrystal (1:1)], the meloxicam plasma concentration came out at 0 µg/mL in data set [1] (time 0 min); 6.25 µg/mL in data set [1] (time 15 min); 16.88 µg/mL in data set [1] (time 30 min); 22.66 µg/mL in data set [1] (time 45 min); 27.26 µg/mL in data set [1] (time 60 min); 20.77 µg/mL in data set [1] (time 120 min). Also, the meloxicam plasma concentration in data set [1] (time 240 min) turned out to be 34.50 µg/mL.

With `Cc1cnc(NC(=O)C2=C(O)c3ccccc3S(=O)(=O)N2C)s1.O=C(O)CCc1ccccc1` [Cocrystal 164, Meloxicam:Hydrocinnamic Acid Cocrystal (1:1)], the meloxicam plasma concentration in data set [1] (time 0 min) was 0 µg/mL; in data set [1] (time 15 min), 9.53 µg/mL; in data set [1] (time 30 min) it was 11.42 µg/mL; in data set [1] (time 45 min), 16.19 µg/mL; in data set [1] (time 60 min), 18.24 µg/mL; in data set [1] (time 120 min) it was 25.918 µg/mL. The meloxicam plasma concentration in data set [1] (time 240 min) is 45.70 µg/mL.

As for `Cc1cnc(NC(=O)C2=C(O)c3ccccc3S(=O)(=O)N2C)s1.Cc1cnc(NC(=O)C2=C(O)c3ccccc3S(=O)(=O)N2C)s1.O=C(O)C[C@H](O)C(=O)O` [Cocrystal 71, Meloxicam: L-Malic Acid Cocrystal (2:1)], the meloxicam plasma concentration came to 0 µg/mL in data set [1] (time 0 min); 24.98 µg/mL in data set [1] (time 15 min); 32.05 µg/mL in data set [1] (time 30 min); 30.38 µg/mL in data set [1] (time 45 min); 30.95 µg/mL in data set [1] (time 60 min); 38.59 µg/mL in data set [1] (time 240 min).

On to `Cc1cnc(NC(=O)C2=C(O)c3ccccc3S(=O)(=O)N2C)s1.Cc1cnc(NC(=O)C2=C(O)c3ccccc3S(=O)(=O)N2C)s1.O=C(O)CCCCC(=O)O` [Cocrystal 152, Meloxicam:Adipic Acid Cocrystal (2:1)], for which the meloxicam plasma concentration in data set [1] (time 0 min) is 0 µg/mL; in data set [1] (time 15 min) it was 9.72. μg/ml; in data set [1] (time 30 min), 22.85 µg/mL; in data set [1] (time 45 min), 28.37 µg/mL; in data set [1] (time 60 min), 30.09 µg/mL; in data set [1] (time 120 min) it was 38.23 µg/mL. The molecule further yielded a meloxicam plasma concentration in data set [1] (time 240 min) of 47.85 µg/mL.

Consider `Cc1cnc(NC(=O)C2=C(O)c3ccccc3S(=O)(=O)N2C)s1.Cc1cnc(NC(=O)C2=C(O)c3ccccc3S(=O)(=O)N2C)s1.O=C(O)CCC(=O)O` [Cocrystal 144, Meloxicam:Succinic Acid Cocrystal (2:1)], for which the meloxicam plasma concentration in data set [2] (N = 5, 0.25 hour) amounted to 0.23 µg/mL; in data set [1] (time 0 min), 0 µg/mL; in data set [1] (time 15 min) it was 13.76 µg/mL; in data set [1] (time 45 min) it was 32.54 µg/mL; in data set [1] (time 60 min), 38.13 µg/mL; in data set [1] (time 120 min), 44.02 µg/mL. Further, in data set [1] (time 240 min), the meloxicam plasma concentration was found to be 43.47 µg/mL. In data set [2], the “AUC” value was 28400 ng·h/mL. Besides, the “Cmax (peak plasma concentration)” value in data set [2] came to 1780 ng/mL. For the same molecule, the “F (bioavailability)” value in data set [2] is 44.7%. Moreover, in data set [2], the “Time to Reach 0.59 μg/ml” value is recorded as 45.1 min.

With `Cc1cnc(NC(=O)C2=C(O)c3ccccc3S(=O)(=O)N2C)s1.Cc1cnc(NC(=O)C2=C(O)c3ccccc3S(=O)(=O)N2C)s1.O=C(O)CC(O)C(=O)O` [Cocrystal 154, Meloxicam:DL-Malic Acid Cocrystal (2:1)], the meloxicam plasma concentration in data set [1] (time 0 min) turned out to be 0 µg/mL; in data set [1] (time 15 min) it was 11.19 µg/mL; in data set [1] (time 30 min), 16.59 µg/mL; in data set [1] (time 45 min) it was 21.96 µg/mL; in data set [1] (time 60 min) it was 24.90 µg/mL; in data set [1] (time 120 min) it was 32.31 µg/mL. The molecule further yielded a meloxicam plasma concentration in data set [1] (time 240 min) of 49.72 µg/mL.

As to `Cc1cnc(NC(=O)C2=C(O)c3ccccc3S(=O)(=O)N2C)s1.O=C(O)CCCC(=O)O` [Cocrystal 92, Meloxicam:Glutaric Acid Cocrystal (1:1)], the meloxicam plasma concentration in data set [1] (time 0 min) is 0 µg/mL; in data set [1] (time 15 min), 5.61 µg/mL; in data set [1] (time 30 min), 13.16 µg/mL; in data set [1] (time 45 min) it was 19.11 µg/mL; in data set [1] (time 60 min), 27.72 µg/mL; in data set [1] (time 120 min), 35.94 µg/mL. Besides, the meloxicam plasma concentration in data set [1] (time 240 min) turned out to be 55.35 µg/mL.

Take `Cc1cnc(NC(=O)C2=C(O)c3ccccc3S(=O)(=O)N2C)s1.Cc1cnc(NC(=O)C2=C(O)c3ccccc3S(=O)(=O)N2C)s1.O=C(O)/C=C/C(=O)O` [Cocrystal 143, Meloxicam:Fumaric Acid Cocrystal (2:1)]: the meloxicam plasma concentration in data set [1] (time 0 min) is 0 µg/mL; in data set [1] (time 15 min) it was 3.33 µg/mL; in data set [1] (time 30 min) it was 6.69 µg/mL; in data set [1] (time 45 min), 9.69 µg/mL; in data set [1] (time 60 min), 13.39 µg/mL; in data set [1] (time 120 min), 20.93 µg/mL. For the same molecule, the meloxicam plasma concentration in data set [1] (time 240 min) stood at 30.23 µg/mL.
